Reference: patent US20200390100A1, “SUBSTITUTED N-HETEROCYCLYL- AND N-HETEROARYL-TETRAHYDROPYRIMIDINONES AND THE SALTS THEREOF, AND THE USE OF SAME AS HERBICIDAL ACTIVE SUBSTANCES” (Bayer Aktiengesellschaft, priority 2017, published 2020)

Key:
Type in all cases: in vivo
Alopecurus myosuroides = experiment: Pre-emergence herbicidal action, greenhouse, 320 g/ha; conditions: application rate 320 g/ha, scored visually after about 3 weeks vs untreated controls
Text: (§1) Seeds of monocotyledonous and dicotyledonous weed plants and crop plants were placed in plastic or organic planting pots and covered with soil. The compounds of the invention, formulated in the form of wettable powders (WP) or as emulsion concentrates (EC), were then applied to the surface of the covering soil as aqueous suspension or emulsion with addition of 0.5% additive at a water application rate equivalent to […]. After the treatment, the pots were placed in a greenhouse and kept under good growth conditions for the test plants. After about 3 weeks, the effect of the preparations is scored visually in comparison with untreated controls as percentages. For example, 100% activity=the plants have died, 0% activity=like control plants. Tables B1 to B14 below show the effects of selected compounds of the general formula (I) according to Tables I.1 to I.150 on various harmful plants and at an application rate corresponding to 320 g/ha, which were obtained by the experimental procedure mentioned above.

Digitaria sanguinalis = experiment: as above; conditions: application rate 320 g/ha, Table B9
Text: as §1

Polygonum convolvulus = experiment: as above; conditions: application rate 320 g/ha, scored visually after about 3 weeks vs untreated controls
Text: as §1

Stellaria media [1] = experiment: as above; conditions: application rate 320 g/ha, scored visually after about 3 weeks vs untreated controls
Text: as §1

Amaranthus retroflexus [2] = experiment: as above; conditions: application rate 320 g/ha, scored visually after about 3 weeks vs untreated controls
Text: as §1

Amaranthus retroflexus [3] = experiment: Herbicidal post-emergence action (Part 2), 1280 g/ha; conditions: application rate 1280 g/ha, rated visually after about 3 weeks, Table C5
Description: (§2) Seeds of mono- and dicotyledonous weed plants were placed in plastic pots in sandy loam soil (doubly sown with in each case one species of mono- or dicotyledonous weed plants per pot), covered with soil and cultivated in a greenhouse under controlled growth conditions. 2 to 3 weeks after sowing, the test plants were treated at the one-leaf stage. The compounds of the invention, formulated in the form of wettable powders (WP) or as emulsion concentrates (EC), were applied onto the green parts of the plants as aqueous suspension or emulsion with addition of 0.5% additive at a water application rate of 600 liters per hectare (converted). After the test plants had been kept in the greenhouse under optimum growth conditions for about 3 weeks, the activity of the preparations was rated visually in comparison to untreated controls. For example, 100% activity=the plants have died, 0% activity=like control plants. Tables C1 to C7 below show the effects of selected compounds of the general formula (I) according to Tables 1.1 to 1.150 on various harmful plants and at an application rate corresponding to 1280 g/ha, which were obtained by the experimental procedure mentioned above.

Matricaria inodora [4] = experiment: as above; conditions: application rate 1280 g/ha, rated visually after about 3 weeks, Table C6
Description: as §2

Stellaria media [5] = experiment: as above; conditions: application rate 1280 g/ha, rated visually after about 3 weeks, Table C7
Description: as §2

Abutilon theophrasti [6] = experiment: Herbicidal pre-emergence action (Part 2), 1280 g/ha; conditions: application rate 1280 g/ha, scored visually after about 3 weeks, Table D5
Text: (§3) Seeds of mono- and dicotyledonous weed plants were placed in plastic pots in sandy loam soil (doubly sown with in each case one species of mono- or dicotyledonous weed plants per pot) and covered with soil. The compounds of the invention, formulated in the form of wettable powders (WP) or as emulsion concentrates (EC), were then applied onto the surface of the covering soil as aqueous suspension or emulsion with addition of 0.5% additive at a water application rate of 600 liters per hectare (converted). After the treatment, the pots were placed in a greenhouse and kept under good growth conditions for the test plants. After about 3 weeks, the effect of the preparations was scored visually in comparison with untreated controls as percentages. For example, 100% activity=the plants have died, 0% activity=like control plants. Tables D1 to D8 below show the effects of selected compounds of the general formula (I) according to Tables 1.1 to 1.150 on various harmful plants and at an application rate corresponding to 1280 g/ha, which were obtained by the experimental procedure mentioned above.

Amaranthus retroflexus [7] = experiment: as above; conditions: application rate 1280 g/ha, scored visually after about 3 weeks, Table D6
Text: as §3

Matricaria inodora [8] = experiment: as above; conditions: application rate 1280 g/ha, scored visually after about 3 weeks, Table D7
Text: as §3

Poa annua = experiment: as above; conditions: application rate 1280 g/ha, scored visually after about 3 weeks, Table D3
Text: as §3

Stellaria media [9] = experiment: as above; conditions: application rate 1280 g/ha, scored visually after about 3 weeks, Table D8
Text: as §3

Echinochloa crus-galli = experiment: as above; conditions: application rate 1280 g/ha, scored visually after about 3 weeks, Table D1
Text: as §3

Avena fatua = experiment: Pre-emergence herbicidal action, greenhouse, 320 g/ha; conditions: application rate 320 g/ha, scored visually after about 3 weeks vs untreated controls
Text: as §1

Pharbitis purpurea = experiment: as above; conditions: application rate 320 g/ha, Table B12
Text: as §1

Setaria viridis = experiment: as above; conditions: application rate 320 g/ha, Table B11
Text: as §1

Viola tricolor = experiment: as above; conditions: application rate 320 g/ha, Table B8
Text: as §1

Matricaria inodora [10] = experiment: as above; conditions: application rate 320 g/ha, scored visually after about 3 weeks vs untreated controls
Text: as §1

Abutilon theophrasti [11] = experiment: as above; conditions: application rate 320 g/ha, scored visually after about 3 weeks vs untreated controls
Text: as §1

Hordeum murinum = experiment: as above; conditions: application rate 320 g/ha, Table B14
Text: as §1

Compound | Polygonum convolvulus (efficacy in %) (Polygonum convolvulus) | Stellaria media (efficacy in %) (Stellaria media [1]) | Amaranthus retroflexus (efficacy in %) (Amaranthus retroflexus [2]) | Amaranthus retroflexus (Amaranthus retroflexus [3]) | Stellaria media (Stellaria media [5]) | Amaranthus retroflexus (Amaranthus retroflexus [7]) | Matricaria inodora (Matricaria inodora [8]) | Poa Annua (Poa annua) | Stellaria media (Stellaria media [9]) | Viola tricolor (efficacy in %) (Viola tricolor) | other results
CN1CCC(O)N(C2=NOC(C)(C)C2)C1=O (stereo not shown) [I.1-709] | 100% | 100% | – | – | – | – | – | – | – | – | Alopecurus myosuroides (efficacy in %) (Alopecurus myosuroides): 100%; Digitaria sanguinalis (efficacy in %) (Digitaria sanguinalis): 100%
CON1CCC(O)N(c2cc(C(C)(C)C)on2)C1=O (stereo not shown) [I.91-162] | 100% | – | 90% | – | – | – | – | – | – | – | Alopecurus myosuroides (efficacy in %) (Alopecurus myosuroides): 80%; Digitaria sanguinalis (efficacy in %) (Digitaria sanguinalis): 100%
CCC(=O)OC1N(c2cc(C(C)(C)C)on2)C(=O)N(C)CC1(C)C (stereo not shown) [I.63-162] | – | – | – | 100% | 100% | 100% | 90% | 100% | 100% | – | Matricaria inodora (Matricaria inodora [4]): 100%; Abutilon theophrasti (Abutilon theophrasti [6]): 100%
CCC(=O)OC1CCN(C)C(=O)N1c1cc(C(F)(F)F)c(Cl)cn1 (stereo not shown) [I.3-451] | – | – | – | 100% | 100% | 100% | 90% | 90% | 100% | – | Echinochloa crus-galli (Echinochloa crus-galli): 100%
CN1CCC(O)N(c2noc(C(C)(C)C)c2Br)C1=O (stereo not shown) [I.1-207] | 100% | 100% | 90% | – | – | – | – | – | – | 100% | Avena fatua (efficacy in %) (Avena fatua): 90%; Digitaria sanguinalis (efficacy in %) (Digitaria sanguinalis): 100%; Pharbitis purpurea (efficacy in %) (Pharbitis purpurea): 100%; Setaria viridis (efficacy in %) (Setaria viridis): 100%
Cc1c(N2C(=O)N(C)CCC2O)noc1C(C)(C)C (stereo not shown) [I.1-177] | 100% | – | 90% | – | – | – | – | – | – | 90% | Digitaria sanguinalis (efficacy in %) (Digitaria sanguinalis): 100%; Setaria viridis (efficacy in %) (Setaria viridis): 90%
CC(C)CC(=O)OC1CCN(C)C(=O)N1c1cc(C(F)(F)F)ccn1 (stereo not shown) [I.7-449] | – | – | – | 100% | – | 100% | 100% | 90% | 100% | – | Matricaria inodora (Matricaria inodora [4]): 90%
CN1CCC(O)N(c2cc(C(C)(C)F)ncn2)C1=O (stereo not shown) [I.1-503] | – | – | – | – | – | – | – | – | – | 100% | Avena fatua (efficacy in %) (Avena fatua): 100%; Matricaria inodora (efficacy in %) (Matricaria inodora [10]): 100%
C=CCC(C)(C)c1cc(N2C(=O)N(C)CCC2O)no1 (stereo not shown) [I.1-199] | 90% | 100% | 100% | – | – | – | – | – | – | 100% | Abutilon theophrasti (efficacy in %) (Abutilon theophrasti [11]): 100%; Alopecurus myosuroides (efficacy in %) (Alopecurus myosuroides): 90%; Hordeum murinum (efficacy in %) (Hordeum murinum): 80%; Matricaria inodora (efficacy in %) (Matricaria inodora [10]): 100%
CCCC(=O)OC1CCN(C)C(=O)N1c1cc(C(C)(C)C)no1 (stereo not shown) [I.4-290] | – | – | – | – | – | 100% | 90% | 90% | 100% | – | Abutilon theophrasti (Abutilon theophrasti [6]): 100%
CC1CC(O)N(c2cc(C(F)(F)F)ccn2)C(=O)N1C (stereo not shown) [I.41-449] | – | 100% | 100% | – | – | – | – | – | – | 100% | Alopecurus myosuroides (efficacy in %) (Alopecurus myosuroides): 90%; Matricaria inodora (efficacy in %) (Matricaria inodora [10]): 100%
CC(=O)OC1CCN(C)C(=O)N1c1cc(C(F)(F)F)c(Cl)cn1 (stereo not shown) [I.2-451] | – | – | – | 100% | 100% | 100% | 90% | – | 100% | – | –
CCCC(=O)OC1CCN(C)C(=O)N1c1cc(C(F)(F)F)c(Cl)cn1 (stereo not shown) [I.4-451] | – | – | – | 100% | 100% | 100% | – | – | 100% | – | –
CN1CCC(O)N(c2noc(C(C)(C)C)c2F)C1=O (stereo not shown) [I.1-206] | 90% | 100% | 90% | – | – | – | – | – | – | 100% | Abutilon theophrasti (efficacy in %) (Abutilon theophrasti [11]): 90%; Alopecurus myosuroides (efficacy in %) (Alopecurus myosuroides): 80%; Avena fatua (efficacy in %) (Avena fatua): 80%; Digitaria sanguinalis (efficacy in %) (Digitaria sanguinalis): 100%; Hordeum murinum (efficacy in %) (Hordeum murinum): 80%; Matricaria inodora (efficacy in %) (Matricaria inodora [10]): 100%; Pharbitis purpurea (efficacy in %) (Pharbitis purpurea): 80%; Setaria viridis (efficacy in %) (Setaria viridis): 90%
CCCC(=O)OC1CCN(C)C(=O)N1c1cc(C(F)(F)F)ccn1 (stereo not shown) [I.4-449] | – | – | – | 100% | 90% | 100% | 100% | 90% | 100% | – | –
CCC(=O)OC1CCN(C)C(=O)N1c1cc(C(F)(F)F)c(Br)cn1 (stereo not shown) [I.3-464] | 90% | 100% | 90% | – | – | – | – | – | – | 100% | Setaria viridis (efficacy in %) (Setaria viridis): 90%
CCCC(=O)OC1CC(C)N(C)C(=O)N1c1cc(C(F)(F)F)ccn1 (stereo not shown) [I.44-449] | – | – | – | – | 90% | 100% | 90% | – | 100% | – | Echinochloa crus-galli (Echinochloa crus-galli): 100%
CCC(=O)OC1CCN(C)C(=O)N1c1cc(C(C)(C)C)no1 (stereo not shown) [I.3-290, 3-(3-tert-Butyl-1,2-oxazol-5-yl)-1-methyl-2-oxohexahydropyrimidin-4-yl Propionate] | – | – | – | 100% | 100% | 100% | 100% | 100% | 100% | – | Matricaria inodora (Matricaria inodora [4]): 90%; Abutilon theophrasti (Abutilon theophrasti [6]): 100%
COCC(C)(C)c1cc(N2C(=O)N(C)CCC2O)no1 (stereo not shown) [I.1-200] | – | 80% | – | – | – | – | – | – | – | 80% | Matricaria inodora (efficacy in %) (Matricaria inodora [10]): 90%; Pharbitis purpurea (efficacy in %) (Pharbitis purpurea): 100%
